This note sets out measurements from PMC3445516 (PLoS ONE, 2012).

Where two headings read alike, the source gives them in different places. Bounds are passed on as bounds.

Common to all, as to experiment: Ambit kinase profiling, competition binding
One assay addresses T1, PRKD1 (Homo sapiens, UniProt Q15139).
T1 construct: purchased Ambit Biosciences (KINOMEscan)
T1 sequence (Q15139 1-912): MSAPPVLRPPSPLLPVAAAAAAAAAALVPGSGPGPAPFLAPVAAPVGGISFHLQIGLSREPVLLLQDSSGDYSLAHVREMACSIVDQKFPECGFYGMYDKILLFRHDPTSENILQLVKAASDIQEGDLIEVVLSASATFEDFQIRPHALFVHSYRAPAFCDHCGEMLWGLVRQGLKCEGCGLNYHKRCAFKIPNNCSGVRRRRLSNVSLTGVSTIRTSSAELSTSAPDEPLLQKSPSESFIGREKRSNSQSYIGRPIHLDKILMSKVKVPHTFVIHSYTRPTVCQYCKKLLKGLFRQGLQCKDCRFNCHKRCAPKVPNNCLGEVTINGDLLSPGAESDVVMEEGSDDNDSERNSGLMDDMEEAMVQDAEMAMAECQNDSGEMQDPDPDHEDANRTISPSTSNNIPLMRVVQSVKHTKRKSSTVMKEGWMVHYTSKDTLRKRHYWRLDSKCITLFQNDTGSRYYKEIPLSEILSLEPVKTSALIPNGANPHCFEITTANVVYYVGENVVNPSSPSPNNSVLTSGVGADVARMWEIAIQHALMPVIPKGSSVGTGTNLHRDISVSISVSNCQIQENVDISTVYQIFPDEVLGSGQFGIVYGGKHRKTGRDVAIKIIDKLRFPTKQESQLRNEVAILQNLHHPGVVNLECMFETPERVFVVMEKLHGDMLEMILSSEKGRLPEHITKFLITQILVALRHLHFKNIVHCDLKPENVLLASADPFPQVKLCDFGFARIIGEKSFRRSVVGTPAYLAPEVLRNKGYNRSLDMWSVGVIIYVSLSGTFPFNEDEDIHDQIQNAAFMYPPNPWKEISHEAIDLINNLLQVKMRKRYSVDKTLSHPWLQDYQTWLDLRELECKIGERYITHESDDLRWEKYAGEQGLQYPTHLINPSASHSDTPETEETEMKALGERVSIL
Here is the method: (§1) Also included in the kinase profile are four isoforms of PKC (δ, ε, η, θ) and eight isoforms of CAMKs (CAMKIα, δ, γ; CAMKIIα, β, δ, γ; CAMK4).
(§2) The global kinase profiling experiment was performed by Ambit Biosciences.

The target of the next assay is T2, CSNK1G2 (Homo sapiens, UniProt P78368).
T2 construct: purchased Ambit Biosciences (KINOMEscan)
T2 sequence (P78368 whole entry): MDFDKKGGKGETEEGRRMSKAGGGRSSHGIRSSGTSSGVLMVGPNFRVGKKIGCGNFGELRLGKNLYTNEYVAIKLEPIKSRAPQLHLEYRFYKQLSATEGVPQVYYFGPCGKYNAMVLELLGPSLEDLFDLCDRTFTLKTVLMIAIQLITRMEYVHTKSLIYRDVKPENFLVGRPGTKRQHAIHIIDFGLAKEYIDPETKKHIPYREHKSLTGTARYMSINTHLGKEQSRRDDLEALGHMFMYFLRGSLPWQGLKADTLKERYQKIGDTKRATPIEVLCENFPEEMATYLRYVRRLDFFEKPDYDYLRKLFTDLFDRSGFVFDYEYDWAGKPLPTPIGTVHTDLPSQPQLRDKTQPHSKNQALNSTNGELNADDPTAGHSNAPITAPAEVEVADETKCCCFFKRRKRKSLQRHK
Particulars: for % Competition: 10 µM. Here is the method: as §1, §2

For a further assay, the target named is T3, EPHA8 (Homo sapiens, UniProt P29322).
T3 construct: purchased Ambit Biosciences (KINOMEscan)
T3 sequence (P29322 28-1005): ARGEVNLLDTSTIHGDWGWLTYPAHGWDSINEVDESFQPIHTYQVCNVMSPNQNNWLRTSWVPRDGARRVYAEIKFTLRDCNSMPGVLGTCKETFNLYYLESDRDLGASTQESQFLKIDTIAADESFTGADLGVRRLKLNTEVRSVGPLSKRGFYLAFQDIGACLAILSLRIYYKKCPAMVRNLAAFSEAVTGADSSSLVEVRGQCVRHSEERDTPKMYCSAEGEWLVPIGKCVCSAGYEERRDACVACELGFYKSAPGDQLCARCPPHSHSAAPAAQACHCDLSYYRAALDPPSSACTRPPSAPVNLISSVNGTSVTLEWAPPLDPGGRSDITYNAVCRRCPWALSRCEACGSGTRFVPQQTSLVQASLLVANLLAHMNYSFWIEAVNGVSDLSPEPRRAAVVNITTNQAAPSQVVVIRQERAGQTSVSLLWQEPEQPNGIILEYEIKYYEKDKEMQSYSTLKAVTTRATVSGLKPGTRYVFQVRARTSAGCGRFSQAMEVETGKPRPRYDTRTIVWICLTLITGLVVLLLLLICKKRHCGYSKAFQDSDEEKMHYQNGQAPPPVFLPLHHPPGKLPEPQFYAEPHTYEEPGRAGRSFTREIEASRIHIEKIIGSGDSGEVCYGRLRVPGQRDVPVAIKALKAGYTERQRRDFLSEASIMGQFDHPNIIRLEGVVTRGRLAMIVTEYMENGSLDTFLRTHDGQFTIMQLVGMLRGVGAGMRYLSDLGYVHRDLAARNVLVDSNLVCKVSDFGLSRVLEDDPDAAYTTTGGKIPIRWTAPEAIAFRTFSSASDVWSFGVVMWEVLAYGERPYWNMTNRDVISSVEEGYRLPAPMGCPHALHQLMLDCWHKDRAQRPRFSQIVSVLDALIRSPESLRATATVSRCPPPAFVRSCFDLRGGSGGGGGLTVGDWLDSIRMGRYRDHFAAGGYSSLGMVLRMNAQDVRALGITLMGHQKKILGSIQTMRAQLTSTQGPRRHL
Here is the method:
as §1, §2

The target of another assay is T4, CAMK4 (Homo sapiens, UniProt Q16566).
T4 construct: purchased Ambit Biosciences (KINOMEscan)
T4 sequence (Q16566 1-473): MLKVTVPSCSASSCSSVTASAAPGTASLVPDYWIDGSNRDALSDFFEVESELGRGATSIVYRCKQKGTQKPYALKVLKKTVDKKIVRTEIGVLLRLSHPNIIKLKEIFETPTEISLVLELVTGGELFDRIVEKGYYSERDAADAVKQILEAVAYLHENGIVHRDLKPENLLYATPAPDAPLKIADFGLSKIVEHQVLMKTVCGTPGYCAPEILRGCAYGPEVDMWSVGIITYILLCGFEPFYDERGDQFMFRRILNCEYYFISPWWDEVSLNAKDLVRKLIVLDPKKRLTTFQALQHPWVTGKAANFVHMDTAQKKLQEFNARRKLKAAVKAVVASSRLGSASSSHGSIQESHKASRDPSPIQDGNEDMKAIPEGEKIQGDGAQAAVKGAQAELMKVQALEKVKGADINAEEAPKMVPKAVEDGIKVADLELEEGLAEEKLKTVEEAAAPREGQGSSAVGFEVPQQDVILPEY
As to conditions: for competition: 10 µM. Here is the method: as §1, §2

The target in a further assay is T5, SLK (Homo sapiens, UniProt Q9H2G2).
T5 construct: purchased Ambit Biosciences (KINOMEscan)
T5 sequence (Q9H2G2 whole entry): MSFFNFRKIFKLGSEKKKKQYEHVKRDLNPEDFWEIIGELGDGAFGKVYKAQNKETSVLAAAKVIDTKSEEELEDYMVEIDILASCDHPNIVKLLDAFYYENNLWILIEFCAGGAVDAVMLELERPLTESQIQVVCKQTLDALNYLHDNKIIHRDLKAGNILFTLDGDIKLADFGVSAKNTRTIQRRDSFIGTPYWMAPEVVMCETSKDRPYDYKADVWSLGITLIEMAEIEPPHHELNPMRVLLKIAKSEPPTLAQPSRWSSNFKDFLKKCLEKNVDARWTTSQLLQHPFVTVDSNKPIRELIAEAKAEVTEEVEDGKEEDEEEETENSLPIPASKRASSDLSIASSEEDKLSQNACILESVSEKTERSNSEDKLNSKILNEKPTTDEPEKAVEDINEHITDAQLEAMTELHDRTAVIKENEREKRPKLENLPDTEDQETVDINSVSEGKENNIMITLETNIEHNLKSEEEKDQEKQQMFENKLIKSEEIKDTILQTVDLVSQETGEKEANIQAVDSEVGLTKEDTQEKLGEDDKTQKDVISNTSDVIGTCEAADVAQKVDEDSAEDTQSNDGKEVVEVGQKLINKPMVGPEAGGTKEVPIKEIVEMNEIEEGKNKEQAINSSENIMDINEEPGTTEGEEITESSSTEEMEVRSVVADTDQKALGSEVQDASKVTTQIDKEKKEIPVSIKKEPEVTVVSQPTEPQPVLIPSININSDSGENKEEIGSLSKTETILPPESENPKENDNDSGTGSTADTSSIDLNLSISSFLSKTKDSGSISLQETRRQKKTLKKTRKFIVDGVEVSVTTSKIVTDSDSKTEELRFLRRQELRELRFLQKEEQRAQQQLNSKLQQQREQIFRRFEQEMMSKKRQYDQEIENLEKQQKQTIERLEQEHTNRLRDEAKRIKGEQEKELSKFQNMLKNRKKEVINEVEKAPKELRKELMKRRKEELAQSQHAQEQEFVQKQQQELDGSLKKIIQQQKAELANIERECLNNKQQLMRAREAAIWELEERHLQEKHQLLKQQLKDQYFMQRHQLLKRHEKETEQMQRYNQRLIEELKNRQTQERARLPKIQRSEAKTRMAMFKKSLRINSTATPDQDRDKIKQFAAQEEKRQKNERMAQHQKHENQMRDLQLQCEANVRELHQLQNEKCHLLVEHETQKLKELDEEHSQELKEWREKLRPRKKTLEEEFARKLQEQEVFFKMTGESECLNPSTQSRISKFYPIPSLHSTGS
Here is the method:
as §1, §2

For the molecule `CC(O)CNc1cc(-c2[nH]c3cccnc3c2-c2ccc(F)cc2)ccn1` (stereo not drawn) [Compound 140], the inhibition at 10 µM on PRKD1 (read-out: % Competition) was 83%; on EPHA8 (read-out: % Competition), less than 50%; at SLK (read-out: % Competition), less than 50%. Further, the “% Competition” value on CSNK1G2 stood at 89%. Further, the competition on CAMK4 is less than 50%.

On to `Fc1ccc(-c2c(-c3ccncc3)[nH]c3nccnc23)cc1` [RO1155697-000-005], for which the inhibition at 10 µM at PRKD1 (PRKD1, compound concentration 10 uM, read-out: Percent Competition) was 92%; on EPHA8 (EPHA8, compound concentration 10 uM, read-out: Percent Competition) it was 71%; at CAMK4 (compound concentration 10 uM, read-out: Percent Competition) it was less than 50%; at SLK (SLK, compound concentration 10 uM, read-out: Percent Competition), 80%. Moreover, the “Percent Competition” value at CSNK1G2 (compound concentration 10 uM) came out at 82%.

`Fc1ccc(-c2c(-c3ccncc3)[nH]c3nccnc23)cc1` [Compound 122]: the inhibition at 10 µM on PRKD1 (PRKD1 (PKD1), 10 µM, read-out: % Competition) came out at 92%; at EPHA8 (EPHA8, 10 µM, read-out: % Competition), 71%; at SLK (SLK, 10 µM, read-out: % Competition) it was 80%. The “% Competition” value on CSNK1G2 amounted to 82%. Further, at CAMK4, the competition is reported as less than 50%.
